Measurements as given in patent US9187458B2, “Cyanoquinoline derivatives” (Tianjin Hemay Bio-Tech Co., LTD., priority 2010, dated 2015).
Counter-ions that a name gives are not always drawn. Blank lines part the entries; values can stand above or below the molecule they belong to.

What was measured:
[1] = system: A431 cells; test: A431 Cell Growth Inhibition Test (MTT Assay); assay type: cell-based, human; settings: Homo sapiens, A-431, 68 h, compound 1 μM, 68 h incubation, read-out: Growth Inhibition Ratio (%)
Description: A431 Cell Growth Inhibition Test (MTT Assay)
1. Cell strains: A431 (human epithelial […] cell strains);
Culture medium: 45% DMEM, 45% F12+10% FBS;
(§1) 1. A plate (10 cm) of cells in logarithmic growth phase normally cultured was collected;
(§2) 2. The culture solution was sucked out. The plate was washed with 5 ml of PBS 1-2 times;
3. PBS was sucked out, and 2 ml of 0.25% pancreatin was added to infiltrate the cells for 1 min;
4. The pancreatin was sucked out, and the culture plate was placed in an incubator. Digestion was carried out for about 15 min at 37° C.;
5. 4 ml of complete culture solution was added in the culture plate to stop the digestion. The cells were carefully scoured with micropipette (1 ml) to give a uniform cell suspension. The suspension was implanted into a 96-well cell culture plate by 2500 cells/100 μl per well. The culture plate was incubated overnight under 5% CO2 at 37° C. In day 2, 100 μl of culture solution comprising the compound was added in each well, and further incubated for 68 h under 5% CO2 at 37° C.
(§3) 6. The culture solution was sucked out;
7. 100 μl of serum-free culture solution containing 0.5 mg/ml MTT was added in each well, and incubated for 4 h;
(§4) 8. The culture solution was carefully sucked out;
9. 100 μl of DMSO was added into each well and vibrated to dissolve;
(§5) 10. OD values were determined at 490 nM.
(§6) 1. Calculation of Relative Inhibition Ratio The inhibition ratio of a compound on cell growth=(PC−n)/(PC−NC)×100%
IC50: concentration of a compound where inhibition ratio was 50%. IC50 values were fitted with Origin7.5.

[2] = system: NCI-H1650 cells; test: NCI-H1650 Cell Growth Inhibition Test (SRB Assay); assay type: cell-based; settings: Homo sapiens, 72 h incubation
Description: NCI-H1650 Cell Growth Inhibition Test (SRB Assay)
1. Cell strains: NCI-H1650 (human non-small cell lung cancer cell strains);
2. SRB, 0.4% (w/v) working solution was formulated with 1% glacial acetic acid and reserved at 4° C.; antitumor compounds; DMSO
as §1
(§7) 2. The culture solution was sucked out. The plate was washed with 5 mL of PBS 1-2 times;
(§8) 3. 1.5 mL of 0.25% pancreatin was added to the plate to infiltrate the cells;
(§9) 4. The pancreatin was sucked out. The culture plate was placed in an incubator. Digestion was carried out for about 3 min at 37° C.;
(§10) 5. 4 mL of complete culture solution was added to the culture plate to stop the digestion. The cells were carefully scoured with micropipette (1 ml) to give a uniform single cell suspension. The suspensin was implanted into a 96-well cell culture plate by 6000 cells/100 μl per well. The culture plate was incubated overnight under 5% CO2 at 37° C. In day 2, 100 μl of culture solution comprising a compound was added in each well, and further incubated for 72 h under 5% CO2 at 37° C.;
(§11) 6. The culture solution was sucked out. 100 uL of TCA fixed cells which were diluted to 10% were added to each well. The plate was kept in a refrigerator for 1 h at 4° C.
7. TCA stationary liquid was sucked out. Each well was washed with 150 μL of ddH2O five times;
8. After the stationary liquid was cleansed, the plate was dried in the air at the room temperature;
9. 60 μL of SRB staining solution was added in each well. The well was stained for 15 min at the room temperature;
10. The SRB staining solution was sucked out. Each well was washed with 150 μL of 1% glacial acetic acid five times;
11. After the SRB staining solution was cleansed, the plate was dried in the air at the room temperature;
12. 100 μL of 10 mM Tris was added in each well, the plate was vibrated to dissolve out SRB;
13. OD values were determined at 570 nM.
as §6
(§12) IC50: Concentration of a compound where inhibition ratio was 50%. IC50 values were fitted with Origin7.5.

[3] = system: BT-474 cells; test: BT-474 Cell Growth Inhibition Test (SRB Assay); assay type: cell-based, human; settings: Homo sapiens, 70 h incubation; for inhibition at 1 µM: BT-474, 70 h, compound 1 μM, read-out: Growth Inhibition Ratio (%)
Method in brief: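 Human breast tumour BT-474 cells (1×10^5/ml seeding, overnight) exposed to compound 70 h at 37 °C, 5% CO2; TCA-fixed, SRB-stained, dye dissolved in 10 mM Tris and OD read at 570 nm. Inhibition ratio = (PC−n)/(PC−NC)×100%; IC50 is the concentration giving 50% inhibition, from fitted curves.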

[4] = system: SK-OV-3 cells; test: SK-OV-3 Cell Growth Inhibition Test (MTT Assay); assay type: cell-based; settings: Homo sapiens, 72 h incubation
Description: SK-OV-3 Cell Growth Inhibition Test (MTT Assay)
Cell strains: SK-OV-3 (human ovarian cancer cell strains);
Culture medium: 90% McCoy's 5A+10% FBS;
as §1, §2
(§13) 3. PBS was sucked out. 1.5 ml of 0.25% pancreatin was added to infiltrate the cells for 1 min;
(§14) 4. The pancreatin was sucked out. The culture plate was placed in an incubator. Digestion was carried out for about 5 min at 37° C.;
(§15) 5. 4.5 ml of complete culture solution was added to the culture plate to stop the digestion.T the cells were carefully scoured with micropipette (1 ml) to give a uniform cell suspension. The suspension was implanted into a 96-well cell culture disc by 4000 cells/100 μl per well. The culture plate was incubated overnight under 5% CO2 at 37° C. In day 2, 100 μl of culture solution comprising a compound was added in each well, and further incubated for 72 h under 5% CO2 at 37° C.
as §3
(§16) 7. 100 μl of serum-free culture solution containing 0.5 mg/ml MTT was added in each well, and incubated for 3 h;
as §4
9. 100 μl of DMSO was added in each well and vibrated to dissolve;
as §5, §6, §12

[5] = system: MDA-MB-453 cells; test: MDA-MB-453 Cell Growth Inhibition Test (SRB Assay); assay type: cell-based; settings: Homo sapiens, 72 h incubation
Description: MDA-MB-453 Cell Growth Inhibition Test (SRB Assay)
Cell strains: MDA-MB-453 (human breast cancer cell strains);
SRB: 0.4% (w/v) working solution was formulated with 1% glacial acetic acid, reserved at 4° C.; antitumor compounds; DMSO
Culture medium: 90% L15+10% FBS;
as §1, §7, §8, §9
as §10, with “suspension” for “suspensin”, “7000” for “6000”
as §11
7. TCA stationary liquid was sucked out. […]
13. OD values were determined at […]. […]

[6] = system: NCI-H358 cells; test: NCI-H358 Cell Growth Inhibition Test (MTT Assay); assay type: cell-based; settings: Homo sapiens, 72 h incubation
Description: NCI-H358 Cell Growth Inhibition Test (MTT Assay)
Cell strains: NCI-H358 (human non-small cell lung cancer cell strains);
as §1, §2, §13
4. The culture plate was placed in an incubator. Digestion was carried out for about 5 min at 37° C.;
5. 3 ml of complete culture solution was added to the culture plate to stop the digestion. Tthe cells were carefully scoured with micropipette (1 ml) to give a uniform cell suspension. The suspension was implanted into a 96-well cell culture plate by 10000 cells/100 […] per well. The culture plate was incubated overnight under 5% CO2 at 37° C. In day 2, 100 μA of culture solution comprising a compound was added in each well, and further incubated for 72 h under 5% CO2 at 37° C.
as §3
7. 100 μA of serum-free culture solution containing 0.5 mg/ml MTT was added in each well, and incubated for 3 h;
as §4
9. 100 μA of DMSO was added in each well and vibrated to dissolve;
as §5, §6, §12

[7] = system: BxPc-3 cells; test: BxPc-3 Cell Growth Inhibition Test (MTT Assay); assay type: cell-based; settings: Homo sapiens, 72 h incubation
Description: BxPc-3 Cell Growth Inhibition Test (MTT Assay) Cell strains: BxPC-3 (human pancreatic cancer cell strains); Culture medium: 90% RPMI-1640+10% FBS; 1. A plate (10 cm) of cells in logarithmic growth phase normally cultured was collected; 2. The culture solution was sucked out. […] The plate was washed with 5 ml of PBS 1-2 times; 3. PBS was sucked out. 1.5 ml of 0.25% pancreatin was added to infiltrate the cells for 1 min; 4. The pancreatin was sucked out. The culture plate was placed in an incubator. Digestion was carried out for about 5 min at 37° C.; 5. 4.5 ml of complete culture solution was added to the culture plate to stop the digestion. The cells were carefully scoured with micropipette (1 ml) to give a uniform cell suspension. The suspension was implanted into a 96-well cell culture plate by 5000 cells/100 μl per well. The culture plate was incubated overnight under 5% CO2 at 37° C. In day 2, 100 μl of culture solution comprising a compound was added in each well, and further incubated for 72 h under 5% CO2 at 37° C. 6. The culture solution was sucked out; 7. 100 μl of serum-free culture solution containing 0.5 mg/ml MTT was added in each well, and incubated for 3 h; 8. The culture solution was carefully sucked out; 9. 100 μl of DMSO was added in each well and vibrated to dissolve; 10. OD values were determined at […]. 1. Calculation of Relative Inhibition Ratio The inhibition ratio of a compound on cell growth=(PC−n)/(PC−NC)×100% IC50: Concentration of a compound where inhibition ratio was 50%. IC50 values were fitted with Origin7.5.

[8] = system: CCRF-CEM/T cells; test: CCRF-CEM/T Cell Growth Inhibition Test (MTT Assay); assay type: cell-based; settings: Homo sapiens, CCRF-CEM/T cells (resistant to paclitaxel), 72 h incubation
Description: CCRF-CEM/T Cell Growth Inhibition Test (MTT Assay)
Cell strains: CCRF-CEM/T (human acute lymphocytic cell leukemia cells);
triple lysate solution: 10% SDS, 5% isobutanol, 0.012M HCl.
1. Cells were cultured to exponential phase. The cells were suspension cells;
2. The cells were collected by centrifuge. The resulting cells were resuspended in a complete culture medium to a desired concentration. The cells suspension was implanted into a 96-well cell culture plate by 20000 cells per well. A compound was added in the wellsuch that the final volume of the system was 120 μl. The system was further incubated for 72 h under 5% CO2 at 37° C.
7. 30 μl of serum-free culture solution containing 2.5 mg/ml MTT was added in each well, and incubated for 3 h;
8. 150 μl of triple lysate solution was added in each well and placed to dissolve at the room temperature;
9. OD values were determined at 570 nM.
as §6, §12

[9] = system: Fadu cells; test: Fadu Cell Growth Inhibition Test (MTT Assay); assay type: cell-based; settings: Homo sapiens, 72 h incubation
Description: Fadu Cell Growth Inhibition Test (MTT Assay)
Cell strains: Fudu (human head and neck cancer cell strains);
Culture medium: 90% EMEM+10% FBS;
as §1, §2, §13, §14
as §15, with “digestion. The” for “digestion.T the”, “plate” for “disc”, “6000” for “4000”
as §3, §16, §4
(§17) 9. 100 μl of DMSO was added in each welland vibrated to dissolve;
as §5, §6, §12

[10] = system: AsPC-1 cells; test: AsPC-1 Cell Growth Inhibition Test (MTT Assay); assay type: cell-based; settings: Homo sapiens, ASPC1, 72 h incubation
Description: AsPC-1 Cell Growth Inhibition Test (MTT Assay)
Cell strains: AsPC-1 (human pancreatic cancer cell strains);
as §1, §2, §13
4. The pancreatin was sucked out. The culture plate was placed in an incubator. Digestion was carried out for about 7.5 min at 37° C.;
as §15, with “digestion. The” for “digestion.T the”, “plate” for “disc”, “8000” for “4000”
as §3, §16, §4, §17, §5, §6, §12

SMILES: C#Cc1cccc(Nc2c(C#N)cnc3cc(O[C@H]4CCOC4)c(NC(=O)/C=C/CN(C)CCOC)cc23)c1 [Example 189, (S,E)-N-(3-CYANO-4-(3-ETHYNYLPHENYLAMINO)-7-(TETRAHYDROFURAN-3-YL-OXY)QUINOLIN-6-YL)-4-(N-METHYLMETHOXYETHYLAMINO)-BUT-2-ENAMIDE]
IC50 [3]: 108 nM | inhibition at 1 µM [3]: 85% | IC50 [4]: 312 nM | IC50 [5]: 523 nM

SMILES: C#Cc1cccc(Nc2c(C#N)cnc3cc(O[C@H]4CCOC4)c(NC(=O)/C=C/CN(CCO)CCO)cc23)c1 [Example 188, (S,E)-N-(3-CYANO-4-(3-ETHYNYLPHENYLAMINO)-7-(TETRAHYDROFURAN-3-YL-OXY)QUINOLIN-6-YL)-4-(DIETHANOLAMINO)-BUT-2-ENAMIDE]
IC50 [6]: 110 nM

SMILES: CN1CCC(Oc2cc3ncc(C#N)c(Nc4ccc(Oc5ccccc5)nc4)c3cc2NC(=O)/C=C2/CCNC2)CC1 [Example 131, (E/Z)-N-(3-CYANO-7-(1-METHYLPIPERIDIN-4-YL-OXY)-4-(6-(PHENOXYPYRIDIN-3-YL-AMINO)QUINOLIN-6-YL)-2-(PYRROLIDIN-3-YLIDENE)ACETAMIDE]
IC50 [7]: 306 nM

Second part, led by results:

IC50 [2]: 819 nM
SMILES: CN(C)C/C=C/C(=O)Nc1cc2c(Nc3ccc(OCc4ccccn4)c(Cl)c3)c(C#N)cnc2cc1OC1CCOC1 (centres unmarked) [Example 3, (E)-N-(4-(3-CHLORO-4-(PYRIDIN-2-YL-METHOXY)PHENYLAMINO)-3-CYANO-7-(TETRAHYDROFURAN-3-YL-OXY)QUINOLIN-6-YL)-4-(DIMETHYLAMINO)-BUT-2-ENAMIDE HYDROCHLORIDE]
inhibition at 1 µM [1]: 85%

IC50 [8]: 1100 nM | IC50 [10]: 440 nM | IC50 [2]: 760 nM
SMILES: CN(C)C/C=C/C(=O)Nc1cc2c(Nc3ccc(OCc4cccc(F)c4)c(Cl)c3)c(C#N)cnc2cc1O[C@H]1CCOC1 [Example 158, (S,E)-N-(4-(4-(3-FLUOROBENZYLOXY)-3-CHLOROPHENYLAMINO)-3-CYANO-7-(TETRAHYDROFURAN-3-YL-OXY)QUINOLIN-6-YL)-4-(DIMETHYLAMINO)-BUT-2-ENAMIDE]
inhibition at 1 µM [1]: 77% | inhibition at 1 µM [3]: 82% | IC50 [9]: 119 nM
